According to patent US20260042731A1, “(2,4-DICHLOROPHENOXY)ACETIC ACID ANALOGS” (CORTEVA AGRISCIENCE LLC, priority 2022, published 2026):
Like-named read-outs stand apart in the source and are kept apart here.

Columns and labels:
Format in all cases: in vivo
[1] = test system: Amaranthus rudis (AMATA), tall water hemp; assay: Postemergence herbicide evaluation, growth of Amaranthus rudis (AMATA); conditions: Amaranthus tuberculatus, post-emergence, read-out: Ave. AMATA, percent reduction in plant size relative to the untreated control; for pest or weed control at 560 g/ha: 560 g ae/ha; for pest or weed control at 280 g/ha: 280 g ae/ha
[2] = test system: Ambrosia artemisiifolia (AMBEL), common ragweed; assay: Postemergence herbicide evaluation, growth of Ambrosia artemisiifolia (AMBEL); conditions: Ambrosia artemisiifolia, post-emergence, read-out: AVE. AMBEL, percent reduction in plant size relative to the untreated control; for pest or weed control at 560 g/ha: 560 g ae/ha; for pest or weed control at 280 g/ha: 280 g ae/ha
[3] = test system: Abutilon theophrasti (ABUTH), velvetleaf; assay: Postemergence herbicide evaluation, growth of Abutilon theophrasti (ABUTH); conditions: Abutilon theophrasti, post-emergence, read-out: AVE. ABUTH, percent reduction in plant size relative to the untreated control; for pest or weed control at 560 g/ha: 560 g ae/ha; for pest or weed control at 280 g/ha: 280 g ae/ha
[4] = test system: Chenopodium album (CHEAL), common lambsquarters; assay: Postemergence herbicide evaluation, growth of Chenopodium album (CHEAL); conditions: Chenopodium album, post-emergence, read-out: Ave. CHEAL, percent reduction in plant size relative to the untreated control; for pest or weed control at 560 g/ha: 560 g ae/ha; for pest or weed control at 280 g/ha: 280 g ae/ha
[5] = test system: glyphosate resistant Conyza canadensis (L.) (ERICA), horseweed; assay: Postemergence herbicide evaluation, growth of Conyza canadensis (ERICA); conditions: Erigeron canadensis, post-emergence, read-out: Ave. ERICA, percent reduction in plant size relative to the untreated control; for pest or weed control at 560 g/ha: 560 g ae/ha; for pest or weed control at 280 g/ha: 280 g ae/ha
[6] = test system: weeds ABUTH, AMATA, AMBEL, CHEAL, ERICA; assay: Postemergence herbicide evaluation, overall average % weed control (ABUTH, AMATA, AMBEL, CHEAL, ERICA); conditions: post-emergence, read-out: Overall Ave % Weed Control; for pest or weed control at 560 g/ha: 560 g ae/ha; for pest or weed control at 280 g/ha: 280 g ae/ha

Row | Structure (SMILES) | pest or weed control at 560 g/ha ([1]; 168 h, 7 DAA) | pest or weed control at 560 g/ha ([1]; 336 h, 14 DAA) | pest or weed control at 560 g/ha ([1]; 504 h, 21 DAA) | pest or weed control at 560 g/ha ([2]; 168 h, 7 DAA) | pest or weed control at 560 g/ha ([2]; 336 h, 14 DAA) | pest or weed control at 560 g/ha ([2]; 504 h, 21 DAA) | pest or weed control at 560 g/ha ([3]; 168 h, 7 DAA) | pest or weed control at 560 g/ha ([3]; 336 h, 14 DAA) | pest or weed control at 560 g/ha ([3]; 504 h, 21 DAA) | pest or weed control at 560 g/ha ([4]; 168 h, 7 DAA) | pest or weed control at 560 g/ha ([4]; 336 h, 14 DAA) | pest or weed control at 560 g/ha ([4]; 504 h, 21 DAA) | pest or weed control at 560 g/ha ([5]; 168 h, 7 DAA) | pest or weed control at 560 g/ha ([5]; 336 h, 14 DAA) | pest or weed control at 560 g/ha ([5]; 504 h, 21 DAA) | pest or weed control at 560 g/ha ([6]; 168 h, 7 DAA) | pest or weed control at 560 g/ha ([6]; 336 h, 14 DAA) | pest or weed control at 560 g/ha ([6]; 504 h, 21 DAA) | pest or weed control at 280 g/ha ([1]; 168 h, 7 DAA) | pest or weed control at 280 g/ha ([1]; 336 h, 14 DAA) | other results
1 | COc1ccc(/C=N/OC(=O)COc2ccc(Cl)cc2Cl)cc1 [Compound A31] | 75% | 96% | 67.5% | 62.5% | 75% | 100% | 40% | 57.5% | 70% | 82.5% | 97% | 96% | 82.5% | 89.5% | 98.5% | 68.5% | 83% | 86.4% |  |  | 
2 | O=C(COc1ccc(Cl)cc1Cl)Nc1c(Cl)c(F)nc(F)c1Cl [Compound D25] | 7.5% | 25% | 2.5% | 40% | 7.5% | 7.5% | 3.5% | 0% | 2.5% | 45% | 7.5% | 15% | 10% | 12.5% | 12.5% | 21.2% | 10.5% | 8% | 5% | 15% | pest or weed control at 280 g/ha ([1]; 504 h, 21 DAA): 5%; pest or weed control at 280 g/ha ([2]; 168 h, 7 DAA): 35%; pest or weed control at 280 g/ha ([2]; 336 h, 14 DAA): 15%; pest or weed control at 280 g/ha ([2]; 504 h, 21 DAA): 10%; pest or weed control at 280 g/ha ([3]; 168 h, 7 DAA): 0%; pest or weed control at 280 g/ha ([3]; 336 h, 14 DAA): 0%; pest or weed control at 280 g/ha ([3]; 504 h, 21 DAA): 0%; pest or weed control at 280 g/ha ([4]; 168 h, 7 DAA): 35%; pest or weed control at 280 g/ha ([4]; 336 h, 14 DAA): 0%; pest or weed control at 280 g/ha ([4]; 504 h, 21 DAA): 12.5%; pest or weed control at 280 g/ha ([5]; 168 h, 7 DAA): 7.5%; pest or weed control at 280 g/ha ([5]; 336 h, 14 DAA): 20%; pest or weed control at 280 g/ha ([5]; 504 h, 21 DAA): 10%; pest or weed control at 280 g/ha ([6]; 168 h, 7 DAA): 16.5%; pest or weed control at 280 g/ha ([6]; 336 h, 14 DAA): 10%; pest or weed control at 280 g/ha ([6]; 504 h, 21 DAA): 7.5%
3 | O=C(COc1ccc(Cl)cc1Cl)Oc1cccnn1 [Compound E2] | 73% | 83% | 84% | 63% | 95% | 99% | 85% | 93% | 98% | 75% | 88% | 94% | 73% | 85% | 90% | 74% | 89% | 93% | 78% | 80% | pest or weed control at 280 g/ha ([1]; 504 h, 21 DAA): 83%; pest or weed control at 280 g/ha ([2]; 168 h, 7 DAA): 63%; pest or weed control at 280 g/ha ([2]; 336 h, 14 DAA): 90%; pest or weed control at 280 g/ha ([2]; 504 h, 21 DAA): 94%; pest or weed control at 280 g/ha ([3]; 168 h, 7 DAA): 85%; pest or weed control at 280 g/ha ([3]; 336 h, 14 DAA): 93%; pest or weed control at 280 g/ha ([3]; 504 h, 21 DAA): 98%; pest or weed control at 280 g/ha ([4]; 168 h, 7 DAA): 65%; pest or weed control at 280 g/ha ([4]; 336 h, 14 DAA): 63%; pest or weed control at 280 g/ha ([4]; 504 h, 21 DAA): 63%; pest or weed control at 280 g/ha ([5]; 168 h, 7 DAA): 70%; pest or weed control at 280 g/ha ([5]; 336 h, 14 DAA): 88%; pest or weed control at 280 g/ha ([5]; 504 h, 21 DAA): 94%; pest or weed control at 280 g/ha ([6]; 168 h, 7 DAA): 72%; pest or weed control at 280 g/ha ([6]; 336 h, 14 DAA): 83%; pest or weed control at 280 g/ha ([6]; 504 h, 21 DAA): 86%
